Test results: patent EP0476658B1, “1-Phenyl-3-phenyl-2-propyne-1-ones” (MERRELL DOW PHARMACEUTICALS INC., priority 1990, dated 1992)
Values belong to the compound of their own block, whether it stands above or below them.

What was measured:
[1] = tested on: Carrageenin-Induced Rat Paw Edema; experiment: Carrageenin-induced rat paw edema; type: in vivo; conditions: 75 mg/Kg i.p. one hour prior to carrageenin; paw volume three hours after; male Sprague Dawley rats
Method: Charles River male Sprague Dawley rats weighing 90 to 100 grams were used. Inflammation of the left hind paw was induced by a 1% carrageenin solution (0.05 cc), injected into the plantar surface of the paw. The contralateral paw was injected with an equal volume of saline. Drugs were administered 75 mg/Kg i.p. (1 cc/100 grams) one hour prior to paw injection. Three hours following the carrageenin injection the difference in volume of the control and inflamed paw was measured. Each paw was immersed in a well of mercury and the volume of mercury displaced was recorded. Paws were uniformly dipped into the mercury up to the beginning of the hairline. A venous pressure transducer, coupled to an chart recorder, was employed to measure the small volumes of mercury displaced. Each group measurement consists of the average of four rats, each with three separate measurements.

[2] = tested on: Mustard Oil-Induced Mouse Ear Edema; experiment: Mustard oil-induced mouse ear edema; type: in vivo; conditions: 30 minutes prior to mustard oil, ear weight 30 minutes after, male CD-1 mice
Method: Charles River male CD-1 mice weighing 30-60 grams were divided into randomized groups. They were dosed i.p. for 30 minutes prior or orally 1 hour prior to application of 20 ul of mustard oil (10% isothiocyanate in acetone) to the right ear. After 30 minutes the mice were sacrificed and an 8 millimeter diameter circular punch biopsy of each ear was obtained and weighed. The difference between the left (control) and right (treated) ear weights were expressed as percent increase.

Rat PMNL [3] = experiment: Measurement of intracellular calcium (Fura-2) in fMLP-stimulated PMNL; type: cell-based; conditions: preincubation of PMNL with compound 15 minutes at 37°C, fMLP stimulus; second wave = influx of extracellular calcium
Method: (§1) Rat PMNL were obtained from exudates resulting from peritoneal injection of 6 mL of 8% sodium caseinate. Eighteen hours after injection rats were killed by carbon dioxide inhalation and the peritoneal cavity lavaged with Hank's balanced salt solution (HBSS). After concentration of the PMNL by centrifugation, contaminating erythrocytes were removed by hypotonic lysis. The PMNL were then washed twice by centrifugation (400 x g for 10 minutes) and resuspended in HBSS. Cell viability was greater than 90% by Trypan Blue exclusion and greater than 90% of the cells were PMNL by Wright-Giemsa stain.
Intracellular calcium levels were obtained using Fura-2 as fluorescent indicator (Grynkiewicz et al., 1985). Fura-2 was loaded into PMNL as the acetoxymethyl ester (Fura-2/AM) using the method of Korchak et al., (1988). Specifically, 1 X 10⁸ PMNL/mL were incubated in HBSS with 10 µM Fura-2/AM for 10 minutes at 37°C. The cells suspension was then diluted ten fold with HBSS and further incubated for another 20 minutes. The cells were then centrifuged (400 x g for 8 minutes at 25°C) and the PMNL (1 x 10⁷ cells/mL) resuspended in HBSS containing 1% bovine serum albumin. Cells were stored at room temperature and used within 3 hours.
Intracellular calcium level determinations were made using a dual wavelength spectrofluorometer (Photon Technology International, New Brunswick, NJ). […]

Rat PMNL [4] = experiment: Superoxide anion (SOA) production by stimulated PMNL; type: cell-based
Method: as §1
Aliquots (50 µl) of a rat PMNL suspension (2 x 10⁷ cells/mL in HBSS) were incubated with 50 µl of HBSS containing vehicle (0.3% DMSO) or compound for 30 minutes at 37°C as above. One hundred microliters of buffer containing 5.98 mg/mL of cytochrome C (Sigma Type III) and 0.1 mg/mL catalase, plus the compounds where appropriate, were then added to each sample. A blank for spectrophotometric measurement, containing unstimulated cells in the presence of cytochrome C, catalase and SOD, was also prepared. […] Aliquots (200 µl) of supernatant were then transferred to a second, flat-well microtiter plate and measured spectrophotometrically at 550 nm. […]

Rat PMNL [5] = experiment: Myeloperoxidase (MPO) release from stimulated PMNL; type: cell-based; conditions: fMLP (with cytochalasin B), opsonized zymosan or ionomycin stimulation
Method: as §1
MPO release was determined using the MPO catalyzed oxidation of O-dianisidine. The experiments were carried out in 96-well microtiter plates (Webster and Henson, 1978). In each well, 50 microliter (µl) aliquots of a PMNL suspension (2 x 10⁷ cells/mL in HBSS) were incubated with 50 µl of HBSS containing vehicle (0.3% DMSO) or inhibitor for 30 minutes at 37°C. The final DMSO concentration never exceeded 0.3% and was constant throughout each experiment. […] The stimuli were added in 50 µl HBSS which also contained the compounds or vehicle, as appropriate, to avoid changing the inhibitor concentration. Cell activation was terminated by centrifugation of the plates at 600 x g for 5 minutes at 22°C. […] Absorbances of the samples were measured at 450 nm. […]

SMILES: COc1ccc(COc2cccc(C#CC(=O)c3ccccc3)c2)cc1 [MDL 100,225, 1-phenyl-3-[3-(4-methoxybenzyloxy)phenyl]-2-propyne-1-one]
%Inhibition [1]: 24.3% ± 10.3%
%Inhibition ([2]; 10 mg/Kg i.p.): 25.3 ± 17.8%
%Inhibition ([2]; 30 mg/Kg i.p.): 33.4 ± 14.6%
%Inhibition ([2]; 100 mg/Kg i.p.): 60.9 ± 11.7%

SMILES: O=C(C#Cc1ccc(OCc2ccccc2)cc1)c1ccccc1 [MDL 101,097, 1-phenyl-3-[(4-benzyloxy)phenyl]-2-propyne-1-one]
effect on fMLP-induced intracellular calcium changes (Rat PMNL [3]): selective concentration-dependent suppression of the second wave of intracellular calcium changes

SMILES: O=C(C#Cc1ccncc1)c1ccccc1 [MDL 101,098, 1-phenyl-3-(4-pyridinyl)-2-propyne-1-one]
inhibition of superoxide anion production (Rat PMNL [4]; PMA and OZ stimulation): inhibited in a dose dependent fashion
inhibition at 1 µM (Rat PMNL [4]; Rattus norvegicus, PMNL, inhibition of superoxide anion production, PMA, CONC 1 uM): -20.7%

inhibition of release of myeloperoxidase (Rat PMNL [5]): dose dependent inhibition
SMILES: CN(C)c1ccc(C(=O)C#Cc2ccncc2)cc1 [MDL 102,175, 1-(4-dimethylaminophenyl)-3-(4-pyridinyl)-2-propynel-1-one]
